ChEMBL document CHEMBL1770128, “Synthesis and antifungal activities of novel 5,6-dihydro-indolo[1,2-a]quinoxaline derivatives” (2011)

Legend:
Assay type in all cases: functional
Fusarium graminearum = test: Antimicrobial activity against Fusarium graminearum at 50 ug/ml after 5 days by poisoned food technique; details: 120 h
Pyricularia oryzae = test: Antimicrobial activity against Pyricularia oryzae at 50 ug/ml after 5 days by poisoned food technique; details: 120 h
[1] = tested on: Fusarium oxysporum f. sp. vasinfectum; test: Antimicrobial activity against Fusarium oxysporum f. sp. vasinfectum at 50 ug/ml […] by poisoned food technique; details: 120 h
Alternaria alternata = test: Antimicrobial activity against Alternaria alternata at 50 ug/ml […] by poisoned food technique; details: 120 h
Alternaria brassicae = test: Antimicrobial activity against Alternaria brassicae at 50 ug/ml […] by poisoned food technique

| Structure (SMILES) | inhibition at 50 µg/mL (Fusarium graminearum) | inhibition at 50 µg/mL (Pyricularia oryzae) | inhibition at 50 µg/mL [1] | inhibition at 50 µg/mL (Alternaria alternata) | inhibition at 50 µg/mL (Alternaria brassicae) |
| --- | --- | --- | --- | --- | --- |
| O=[N+]([O-])c1ccc(C2Nc3ccccc3-n3c2cc2ccccc23)cc1 (stereo not given) | 17.2% | 5.8% | 9.2% | 19.4% | 11.2% |
| Oc1ccc(C2Nc3ccccc3-n3c2cc2ccccc23)cc1 (stereo not given) | 52.1% | 50.8% | 39.2% | 58.3% | 31.4% |
| COc1cc(C2Nc3ccccc3-n3c2cc2ccccc23)ccc1O (stereo not given) | 15.7% | 4.4% | 11% | 9.2% | 15.7% |
| Cc1c2n(c3ccccc13)-c1ccccc1NC2c1ccc([N+](=O)[O-])cc1 (stereo not given) | 26.6% | 11.8% | 11.4% | 18.2% | 13.3% |
| Cc1c2n(c3ccccc13)-c1ccccc1NC2c1ccc(O)cc1 (stereo not given) | 48% | 46.5% | 44% | 55.6% | 53% |
| Cc1cccc2c1cc1n2-c2ccccc2NC1c1ccc([N+](=O)[O-])cc1 (stereo not given) | 24.6% | 10.1% | 5.3% | 17.7% | 10.4% |
| Cc1cccc2c1cc1n2-c2ccccc2NC1c1ccc(O)cc1 (stereo not given) | 51.3% | 50.8% | 41.2% | 72.9% | 55.9% |
| Cc1cccc2c1cc1n2-c2ccccc2NC1c1ccccc1 (stereo not given) | 32% | 22.1% | 8.8% | 29.2% | 30.4% |
| Cc1cccc2c1cc1n2-c2ccccc2NC1c1ccc(N(C)C)cc1 (stereo not given) | 17.6% | 7.7% | 6.9% | 19.8% | 10.4% |
| COc1ccc(C2Nc3ccccc3-n3c2cc2c(C)cccc23)cc1 (stereo not given) | 12.2% | 15.1% | 9.7% | 14.9% | 7.2% |
| COc1cc(C2Nc3ccccc3-n3c2cc2c(C)cccc23)ccc1O (stereo not given) | 12.3% | 16% | 20.2% | 17.9% | 21% |
| Cc1cccc2c1cc1n2-c2ccccc2NC1c1ccccc1O (stereo not given) | 8.8% | 7.8% | 11.7% | 12% | 55.8% |
| Cc1ccc2cc3n(c2c1)-c1ccccc1NC3c1ccc([N+](=O)[O-])cc1 (stereo not given) | 12.2% | 1.6% | 11.7% | 7.8% | 13% |
| Cc1ccc2cc3n(c2c1)-c1ccccc1NC3c1ccc(O)cc1 (stereo not given) | 41.2% | 43.7% | 37.3% | 56.3% | 49% |
| N#Cc1ccc2c(c1)cc1n2-c2ccccc2NC1c1ccc([N+](=O)[O-])cc1 (stereo not given) | 56.3% | 62.8% | 60.8% | 64.6% | 52.4% |
| Cc1cccc2c1cc1n2-c2ccccc2NC1(C)c1ccccc1 (stereo not given) | 43% | 34.6% | 23.6% | 32.7% | 29.9% |
| Cc1c2n(c3ccccc13)-c1ccccc1NC2c1ccco1 (stereo not given) | 31.5% | 33.4% | 17.8% | 37.3% | 30.1% |
| Cc1cc(O)no1 [HYMEXAZOL] | 57% | 53.5% | 62.7% | 68.8% | 47.1% |
